# Data from US9738634B2, “Heterocyclic amide compound and herbicide” (SYNGENTA PARTICIPATIONS AG, priority 2013, dated 2017).
# How the values were obtained:
# Assay type in all cases: in vivo
# transplanted rice = experiment: Test Example 1: preemergent weed treatment in the submerged state, effect on crop; a: transplanted rice; conditions: treatment dosage 252 g/ha
# How it was run: (§1)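 Pre-emergence application onto floodwater (4 cm, alluvial soil) on the day of sowing, dose expressed as g/ha from diluted emulsion formulation. Weeds sown with 2.5-leaf transplanted rice as crop; plants held at 25–30 °C in greenhouse and scored against assessment criteria after 3 weeks.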
# fig-leafed goosefoot [1] = experiment: Test Example 4: weedkilling efficacy by foliar treatment; M: fig-leafed goosefoot; conditions: treatment dosage 315 g/ha
# How it was run: (§2)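 Seeds are spot-sown into sterilized diluvial soil and covered with about 1.5 cm of soil. After 14 days' greenhouse growth at 25 to 30° C, plants are sprayed on stems and leaves with diluted emulsion at the stated g/ha rate, then scored at 3 weeks.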
# oval-leafed pondweed [2] = experiment: Test Example 2: weedkilling efficacy, growth period weed treatment in the submerged state; C: oval-leafed pondweed; conditions: treatment dosage 252 g/ha
# How it was run: (§3)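 Weeds treated at the 1-2 leaf stage by application of diluted emulsion onto floodwater (4 cm depth, alluvial soil) at specified g/ha. Grown in greenhouse at 25 to 30° C; herbicidal effect rated three weeks after treatment.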
# catchweed [3] = experiment: Test Example 3: weedkilling efficacy through soil treatment; O: catchweed; conditions: treatment dosage 315 g/ha
# From the text: Weedkilling Efficacy Test Through Soil Treatment
# Sterilized diluvial soil was introduced into 21 cm long, 13 cm wide, 7 cm deep plastic boxes, and seeds of crabgrass, green foxtail, barnyard grass, wild oat, black-grass, Italian ryegrass, common wind-grass, Indian mallow, redroot pigweed, fig-leafed goosefoot, chickweed, catchweed, birds-eye speedwell, corn, soybean, rice, wheat, beet and rapeseed were each spot-sown, and covered with about 1.5 cm of soil. Next, emulsions of compounds of the present invention prepared according to compounding example 2 were diluted with water to give the specified dosages, and applied uniformly onto the soil surface with a small sprayer. The plants were grown by placing the plastic boxes in a greenhouse at 25 to 30° C., and 3 weeks after the pesticide treatment the effect on each type of plant was investigated on the basis of the assessment criteria of test example 1.
# A: barnyard grass, B: bulrush, C: oval-leafed pondweed, D: crabgrass, E: green foxtail, F: barnyard grass, G: wild oat, H: black-grass, I: Italian ryegrass, J: common wind-grass, K: Indian mallow, L: redroot pigweed, M: fig-leafed goosefoot, N: chickweed, O: catchweed, p: birds-eye speedwell, a: transplanted rice, b: directly sown rice, c: corn, d: soybean, e: wheat, f: beet, g: rapeseed
# Further, pesticide dosage (g/ha) indicates the concentration regulated such that treatment was with only the stated number of grams (g), when calculated per hectare (ha).
# green foxtail [4] = experiment: Test Example 3: weedkilling efficacy through soil treatment; E: green foxtail; conditions: treatment dosage 315 g/ha
# How it was run: (§4)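 Crop and weed responses were judged three weeks after a uniform surface spray of the water-diluted emulsion at the given g/ha rate. Seeds sat beneath about 1.5 cm of sterilized diluvial soil, and boxes stood in a greenhouse at 25 to 30° C.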
# directly sown rice [5] = experiment: Test Example 4: foliar treatment, effect on crop; b: directly sown rice; conditions: treatment dosage 315 g/ha
# How it was run: as §2
# chickweed [6] = experiment: Test Example 3: weedkilling efficacy through soil treatment; N: chickweed; conditions: treatment dosage 315 g/ha
# How it was run: as §4
# wheat [7] = experiment: Test Example 4: foliar treatment, effect on crop; e: wheat; conditions: treatment dosage 315 g/ha
# How it was run: as §2
# Italian ryegrass [8] = experiment: Test Example 3: weedkilling efficacy through soil treatment; I: Italian ryegrass; conditions: treatment dosage 315 g/ha
# How it was run: as §4
# soybean [9] = experiment: Test Example 4: foliar treatment, effect on crop; d: soybean; conditions: treatment dosage 315 g/ha
# How it was run: as §2
# Indian mallow [10] = experiment: Test Example 4: weedkilling efficacy by foliar treatment; K: Indian mallow; conditions: treatment dosage 315 g/ha
# How it was run: as §2
# fig-leafed goosefoot [11] = experiment: Test Example 3: weedkilling efficacy through soil treatment; M: fig-leafed goosefoot; conditions: treatment dosage 315 g/ha
# How it was run: as §4
# black-grass [12] = experiment: Test Example 3: weedkilling efficacy through soil treatment; H: black-grass; conditions: treatment dosage 315 g/ha
# How it was run: as §4
# beet [13] = experiment: Test Example 4: foliar treatment, effect on crop; f: beet; conditions: treatment dosage 315 g/ha
# How it was run: as §2
# crabgrass [14] = experiment: Test Example 4: weedkilling efficacy by foliar treatment; D: crabgrass; conditions: treatment dosage 315 g/ha
# How it was run: as §2
# catchweed [15] = experiment: Test Example 4: weedkilling efficacy by foliar treatment; O: catchweed; conditions: treatment dosage 315 g/ha
# How it was run: as §2
# directly sown rice [16] = experiment: Test Example 3: soil treatment, effect on crop; b: directly sown rice; conditions: treatment dosage 315 g/ha
# How it was run: as §4
# redroot pigweed [17] = experiment: Test Example 4: weedkilling efficacy by foliar treatment; L: redroot pigweed; conditions: treatment dosage 315 g/ha
# How it was run: as §2
# Italian ryegrass [18] = experiment: Test Example 4: weedkilling efficacy by foliar treatment; I: Italian ryegrass; conditions: treatment dosage 315 g/ha
# How it was run: as §2
# birds-eye speedwell [19] = experiment: Test Example 4: weedkilling efficacy by foliar treatment; p: birds-eye speedwell; conditions: treatment dosage 315 g/ha
# How it was run: as §2
# corn [20] = experiment: Test Example 3: soil treatment, effect on crop; c: corn; conditions: treatment dosage 315 g/ha
# How it was run: as §4
# corn [21] = experiment: Test Example 4: foliar treatment, effect on crop; c: corn; conditions: treatment dosage 315 g/ha
# How it was run: as §2
# oval-leafed pondweed [22] = experiment: Test Example 1: weedkilling efficacy, preemergent weed treatment in the submerged state; C: oval-leafed pondweed; conditions: treatment dosage 252 g/ha
# How it was run: as §1
# soybean [23] = experiment: Test Example 3: soil treatment, effect on crop; d: soybean; conditions: treatment dosage 315 g/ha
# How it was run: as §4
# redroot pigweed [24] = experiment: Test Example 3: weedkilling efficacy through soil treatment; L: redroot pigweed; conditions: treatment dosage 315 g/ha
# How it was run: as §4
# wheat [25] = experiment: Test Example 3: soil treatment, effect on crop; e: wheat; conditions: treatment dosage 315 g/ha
# How it was run: as §4
# barnyard grass [26] = experiment: Test Example 2: weedkilling efficacy, growth period weed treatment in the submerged state; A: barnyard grass; conditions: treatment dosage 252 g/ha
# How it was run: as §3
# Indian mallow [27] = experiment: Test Example 3: weedkilling efficacy through soil treatment; K: Indian mallow; conditions: treatment dosage 315 g/ha
# How it was run: as §4
# bulrush [28] = experiment: Test Example 2: weedkilling efficacy, growth period weed treatment in the submerged state; B: bulrush; conditions: treatment dosage 252 g/ha
# How it was run: as §3
# crabgrass [29] = experiment: Test Example 3: weedkilling efficacy through soil treatment; D: crabgrass; conditions: treatment dosage 315 g/ha
# How it was run: as §4
# beet [30] = experiment: Test Example 3: soil treatment, effect on crop; f: beet; conditions: treatment dosage 315 g/ha
# How it was run: as §4
# bulrush [31] = experiment: Test Example 1: weedkilling efficacy, preemergent weed treatment in the submerged state; B: bulrush; conditions: treatment dosage 252 g/ha
# How it was run: as §1
# green foxtail [32] = experiment: Test Example 4: weedkilling efficacy by foliar treatment; E: green foxtail; conditions: treatment dosage 315 g/ha
# How it was run: as §2
# black-grass [33] = experiment: Test Example 4: weedkilling efficacy by foliar treatment; H: black-grass; conditions: treatment dosage 315 g/ha
# How it was run: as §2
# barnyard grass [34] = experiment: Test Example 1: weedkilling efficacy, preemergent weed treatment in the submerged state; A: barnyard grass; conditions: treatment dosage 252 g/ha
# How it was run: as §1
# chickweed [35] = experiment: Test Example 4: weedkilling efficacy by foliar treatment; N: chickweed; conditions: treatment dosage 315 g/ha
# How it was run: as §2
# birds-eye speedwell [36] = experiment: Test Example 3: weedkilling efficacy through soil treatment; p: birds-eye speedwell; conditions: treatment dosage 315 g/ha
# How it was run: as §4
smiles,measurement,setting,value
CSc1nsc(NC(=O)C(C)(C)N2COC(C)=C(c3ccccc3)C2=O)n1 [B-1-16],a (transplanted rice) effect on crop grade,transplanted rice,"2 (weed kill ratio 20% or more, less than 40%)"
same,M (fig-leafed goosefoot) weedkilling efficacy grade,fig-leafed goosefoot [1],"3 (weed kill ratio 40% or more, less than 70%)"
same,C (oval-leafed pondweed) weedkilling efficacy grade,oval-leafed pondweed [2],"5 (weed kill ratio 90% or more, (practically complete withering))"
same,O (catchweed) weedkilling efficacy grade,catchweed [3],"5 (weed kill ratio 90% or more, (practically complete withering))"
same,E (green foxtail) weedkilling efficacy grade,green foxtail [4],"5 (weed kill ratio 90% or more, (practically complete withering))"
same,b (directly sown rice) effect on crop grade,directly sown rice [5],"4 (weed kill ratio 70% or more, less than 90%)"
same,N (chickweed) weedkilling efficacy grade,chickweed [6],"3 (weed kill ratio 40% or more, less than 70%)"
same,e (wheat) effect on crop grade,wheat [7],"1 (weed kill ratio 5% or more, less than 20%)"
same,I (Italian ryegrass) weedkilling efficacy grade,Italian ryegrass [8],"4 (weed kill ratio 70% or more, less than 90%)"
same,d (soybean) effect on crop grade,soybean [9],"3 (weed kill ratio 40% or more, less than 70%)"
same,K (Indian mallow) weedkilling efficacy grade,Indian mallow [10],"5 (weed kill ratio 90% or more, (practically complete withering))"
same,M (fig-leafed goosefoot) weedkilling efficacy grade,fig-leafed goosefoot [11],"4 (weed kill ratio 70% or more, less than 90%)"
same,H (black-grass) weedkilling efficacy grade,black-grass [12],"5 (weed kill ratio 90% or more, (practically complete withering))"
same,f (beet) effect on crop grade,beet [13],"1 (weed kill ratio 5% or more, less than 20%)"
same,D (crabgrass) weedkilling efficacy grade,crabgrass [14],"5 (weed kill ratio 90% or more, (practically complete withering))"
same,O (catchweed) weedkilling efficacy grade,catchweed [15],"4 (weed kill ratio 70% or more, less than 90%)"
same,b (directly sown rice) effect on crop grade,directly sown rice [16],"3 (weed kill ratio 40% or more, less than 70%)"
same,L (redroot pigweed) weedkilling efficacy grade,redroot pigweed [17],"4 (weed kill ratio 70% or more, less than 90%)"
same,I (Italian ryegrass) weedkilling efficacy grade,Italian ryegrass [18],"3 (weed kill ratio 40% or more, less than 70%)"
same,P (birds-eye speedwell) weedkilling efficacy grade,birds-eye speedwell [19],0 (weed kill ratio 5% or less (practically no effect))
same,c (corn) effect on crop grade,corn [20],0 (weed kill ratio 5% or less (practically no effect))
same,c (corn) effect on crop grade,corn [21],"2 (weed kill ratio 20% or more, less than 40%)"
same,C (oval-leafed pondweed) weedkilling efficacy grade,oval-leafed pondweed [22],"5 (weed kill ratio 90% or more, (practically complete withering))"
same,d (soybean) effect on crop grade,soybean [23],0 (weed kill ratio 5% or less (practically no effect))
same,L (redroot pigweed) weedkilling efficacy grade,redroot pigweed [24],"4 (weed kill ratio 70% or more, less than 90%)"
same,e (wheat) effect on crop grade,wheat [25],"5 (weed kill ratio 90% or more, (practically complete withering))"
same,A (barnyard grass) weedkilling efficacy grade,barnyard grass [26],"5 (weed kill ratio 90% or more, (practically complete withering))"
same,K (Indian mallow) weedkilling efficacy grade,Indian mallow [27],0 (weed kill ratio 5% or less (practically no effect))
same,B (bulrush) weedkilling efficacy grade,bulrush [28],"5 (weed kill ratio 90% or more, (practically complete withering))"
same,D (crabgrass) weedkilling efficacy grade,crabgrass [29],"5 (weed kill ratio 90% or more, (practically complete withering))"
same,f (beet) effect on crop grade,beet [30],0 (weed kill ratio 5% or less (practically no effect))
same,B (bulrush) weedkilling efficacy grade,bulrush [31],"5 (weed kill ratio 90% or more, (practically complete withering))"
same,E (green foxtail) weedkilling efficacy grade,green foxtail [32],"5 (weed kill ratio 90% or more, (practically complete withering))"
same,H (black-grass) weedkilling efficacy grade,black-grass [33],"5 (weed kill ratio 90% or more, (practically complete withering))"
same,A (barnyard grass) weedkilling efficacy grade,barnyard grass [34],"5 (weed kill ratio 90% or more, (practically complete withering))"
same,N (chickweed) weedkilling efficacy grade,chickweed [35],0 (weed kill ratio 5% or less (practically no effect))
same,P (birds-eye speedwell) weedkilling efficacy grade,birds-eye speedwell [36],"4 (weed kill ratio 70% or more, less than 90%)"
